How the values were obtained:
multiresistant HIV = conditions: patients, alovudine 7.5 mg qd add-on for four weeks
Experimental: A phase IIa trial was performed with 15 patients failing their current NRTI-containing regimens. Each patient had HIV RNA>1000 cp/ml, with at least 2 mutations in the viral RT induced by previous viral therapy, as established by genotypic assay.
The patents were administered qd 7.5 mg alovudine in a conventional carrier in addition to their current regimen for four weeks. The current regimes included various permutations of 3-5 HIV antivirals selected from 3TC, ddI, D4T, nevirapine, DMP, ritonavir, kaletra, saquinavir, amprenavir and indinavir, administered in their conventional dosage forms and regimens. Antiviral load evaluation was performed weekly and then four weeks after discontinuation of alovudine.
As this clinical trial was performed as an add-on therapy to the patients pre-existing regime, it will be appreciated that the alovudine qd was administered in a separate dosage form to the abacavir (typically bd) and other antvirals (typically administered […]).

HIV-1, IIIb = assay: microbe, parasite or virus in culture; assay type: cell-based; conditions: Human immunodeficiency virus 1, IIIB, MT4; alovudine alone at 0.003 uM, FIG. 3
Experimental: The antiviral effects of MIV-310 in combination with other NRTIs on HIV-1 replication in MT4 cells were examined by the median effect method (Chao and Talalay 1983). The assay was performed in microtiter plates with each well containing 10^5 cells and 20-50 tissue culture infective doses of HIV-1, IIIb. Each drug alone and a mixture of the drugs in a constant ratio were serially diluted in 2-fold steps and added to the wells in quadruplicates. The constant ratio is selected to reflect the relative potency of the drugs. […] The anti-viral effect was measured day 5 using the XTT calorimetric method.
A combination index (CI) less than 1 indicates synergism, CI equal to zero indicates addition and a CI greater than 1 indicates antagonism. Once again, the combinations have been tested at molar ratios reflecting their relative ED50s in cell culture.

Cc1cn([C@H]2C[C@H](F)[C@@H](CO)O2)c(=O)[nH]c1=O [alovudine, 3′-deoxy-3′-fluorothymidine]
serious adverse events (multiresistant HIV): no serious adverse events | tolerability (multiresistant HIV): generally well tolerated | transient mean increase in CD4 counts (multiresistant HIV): +52 counts/mm^3 | inhibition at 0.003 µM (HIV-1, IIIb): 27%
